Patent publication US5186941A (priority 1991, dated 1993)

Legend:
[1] = rat, in vivo
[2] = rat, in vivo; remark: listed apart in the source

C[n+]1ccccc1/C=N/O [2-PAMCl, 2-pralidoxime chloride]
duration of therapeutic plasma drug level (4.0 μg/ml plasma) [1]: 21/4 | time until blood concentration drops below therapeutic level (TL) [1]: 2 to 3 h | death of all animals, time after injection [2]: ≤ 30 min
